What was measured:
[1] = target: NaV1.6 (Homo sapiens (Human), UniProt Q9UQD0); assay: Sodium Influx Assay (Flux), NaV1.6; conditions: read-out: Flux NaV1.6 IC50; Trex HEK293 cells, ANG2 dye; arithmetic mean
[2] = target: NaV1.1 (Homo sapiens (Human), UniProt P35498); assay: Sodium Influx Assay (Flux), NaV1.1; format: cell-based; conditions: Trex HEK293 cells, ANG2 dye; arithmetic mean
[3] = target: NaV1.5 (Homo sapiens (Human), UniProt Q14524); assay: Sodium Influx Assay (Flux), NaV1.5; conditions: read-out: Flux NaV1.5 IC50; Trex HEK293 cells, ANG2 dye; arithmetic mean
NaV1.5, sequence (Q14524 other isoform, or with tags, fused parts or gaps): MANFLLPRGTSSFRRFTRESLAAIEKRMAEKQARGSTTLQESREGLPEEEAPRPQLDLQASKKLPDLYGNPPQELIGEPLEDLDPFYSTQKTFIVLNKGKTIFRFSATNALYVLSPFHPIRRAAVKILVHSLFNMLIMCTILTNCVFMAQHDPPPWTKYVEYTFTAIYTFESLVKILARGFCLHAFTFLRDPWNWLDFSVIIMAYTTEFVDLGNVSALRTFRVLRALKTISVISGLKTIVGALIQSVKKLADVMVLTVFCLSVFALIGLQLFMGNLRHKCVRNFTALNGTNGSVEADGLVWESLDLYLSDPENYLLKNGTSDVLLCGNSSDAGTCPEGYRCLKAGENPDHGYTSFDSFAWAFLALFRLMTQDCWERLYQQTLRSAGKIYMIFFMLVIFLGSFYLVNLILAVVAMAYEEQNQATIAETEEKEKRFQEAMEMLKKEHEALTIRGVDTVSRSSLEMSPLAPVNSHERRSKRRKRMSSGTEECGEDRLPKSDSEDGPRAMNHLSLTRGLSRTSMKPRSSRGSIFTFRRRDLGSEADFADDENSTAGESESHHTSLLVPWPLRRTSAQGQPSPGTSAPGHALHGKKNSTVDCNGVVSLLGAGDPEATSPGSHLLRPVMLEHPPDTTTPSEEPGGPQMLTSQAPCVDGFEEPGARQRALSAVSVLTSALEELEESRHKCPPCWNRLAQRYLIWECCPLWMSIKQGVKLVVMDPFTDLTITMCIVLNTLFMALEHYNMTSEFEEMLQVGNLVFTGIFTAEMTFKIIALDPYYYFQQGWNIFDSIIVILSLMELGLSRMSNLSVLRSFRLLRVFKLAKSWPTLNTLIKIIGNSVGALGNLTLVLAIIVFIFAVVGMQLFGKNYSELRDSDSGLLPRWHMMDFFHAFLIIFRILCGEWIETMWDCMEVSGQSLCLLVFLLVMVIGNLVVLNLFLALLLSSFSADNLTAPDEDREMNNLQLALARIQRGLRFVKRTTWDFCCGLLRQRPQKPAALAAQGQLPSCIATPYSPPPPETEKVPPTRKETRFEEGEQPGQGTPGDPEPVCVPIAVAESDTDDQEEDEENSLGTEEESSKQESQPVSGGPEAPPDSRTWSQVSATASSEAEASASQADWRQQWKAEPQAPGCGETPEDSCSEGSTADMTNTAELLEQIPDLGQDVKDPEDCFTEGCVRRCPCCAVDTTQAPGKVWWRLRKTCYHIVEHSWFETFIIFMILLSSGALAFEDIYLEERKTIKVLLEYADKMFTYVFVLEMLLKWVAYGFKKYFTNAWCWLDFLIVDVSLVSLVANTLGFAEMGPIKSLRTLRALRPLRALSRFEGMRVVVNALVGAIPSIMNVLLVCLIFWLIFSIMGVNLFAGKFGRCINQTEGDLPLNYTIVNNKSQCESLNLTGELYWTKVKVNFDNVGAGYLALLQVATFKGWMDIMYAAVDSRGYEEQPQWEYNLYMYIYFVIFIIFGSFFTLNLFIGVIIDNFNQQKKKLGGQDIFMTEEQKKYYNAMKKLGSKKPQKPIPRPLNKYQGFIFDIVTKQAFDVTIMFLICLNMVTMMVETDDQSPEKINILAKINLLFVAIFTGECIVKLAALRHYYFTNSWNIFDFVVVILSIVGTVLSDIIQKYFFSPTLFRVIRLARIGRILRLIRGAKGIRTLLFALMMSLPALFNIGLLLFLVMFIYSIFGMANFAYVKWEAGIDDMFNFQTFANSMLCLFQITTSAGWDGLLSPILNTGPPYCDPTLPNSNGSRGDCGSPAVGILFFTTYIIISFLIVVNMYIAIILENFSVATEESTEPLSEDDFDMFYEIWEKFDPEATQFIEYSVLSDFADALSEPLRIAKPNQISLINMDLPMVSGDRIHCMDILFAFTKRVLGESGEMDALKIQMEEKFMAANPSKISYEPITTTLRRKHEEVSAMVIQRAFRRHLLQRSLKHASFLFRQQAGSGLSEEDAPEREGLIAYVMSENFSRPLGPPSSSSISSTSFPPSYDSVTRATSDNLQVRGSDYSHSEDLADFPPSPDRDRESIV

Structure (SMILES) | IC50 [1] [µM] | IC50 [2] [µM] | IC50 [3] [µM]
CN(c1cc(F)c(S(=O)(=O)Nc2cscn2)cc1Cl)[C@H]1CCN(Cc2cccn2C)C1 [Example 181, (S)-5-chloro-2-fluoro-4-(methyl(1-((1-methyl-1H-pyrrol-2-yl)methyl)pyrrolidin-3-yl)amino)-N-(thiazol-4-yl)benzene-sulfonamide] | 3.15 | > 30 | > 30
CN(c1cc(F)c(S(=O)(=O)Nc2cscn2)cc1Cl)[C@H]1CCN(Cc2c[nH]c3ccccc23)C1 [Example 182, (S)-4-((1-((1H-indol-3-yl)methyl)pyrrolidin-3-yl)(methyl)amino)-5-chloro-2-fluoro-N-(thiazol-4-yl)benzene-sulfonamide 2,2,2-trifluoroacetate] | 0.877 | 9.41 | 9.86
CN(c1cc(F)c(S(=O)(=O)Nc2cscn2)cc1Cl)[C@H]1CCN(Cc2ccn(C)n2)C1 [Example 183, (S)-5-chloro-2-fluoro-4-(methyl(1-((1-methyl-1H-pyrazol-3-yl)methyl)pyrrolidin-3-yl)amino)-N-(thiazol-4-yl)benzene-sulfonamide] | 6.93 | > 30 | > 30
CN(c1cc(F)c(S(=O)(=O)Nc2cscn2)cc1Cl)[C@H]1CCN(Cc2ncc3ccccn23)C1 [Example 184, (S)-5-chloro-2-fluoro-4-((1-(imidazo[1,5-a]pyridin-3-ylmethyl)pyrrolidin-3-yl)(methyl)amino)-N-(thiazol-4-yl)benzene-sulfonamide] | 5.38 | > 30 | > 30
CN(c1cc(F)c(S(=O)(=O)Nc2cscn2)cc1Cl)[C@H]1CCN(Cc2ccnc(C(F)(F)F)c2)C1 [Example 185, (S)-5-chloro-2-fluoro-4-(methyl(1-((2-(trifluoromethyl)-pyridin-4-yl)methyl)pyrrolidin-3-yl)amino)-N-(thiazol-4-yl)benzene-sulfonamide] | 7.02 | 8.81 | 22.4
CN(c1cc(F)c(S(=O)(=O)Nc2cscn2)cc1Cl)[C@H]1CCN(Cc2cccc3ccncc23)C1 [Example 186, (S)-5-chloro-2-fluoro-4-((1-(isoquinolin-8-ylmethyl)pyrrolidin-3-yl)(methyl)amino)-N-(thiazol-4-yl)benzene-sulfonamide 2,2,2-trifluoroacetate] | 3.27 | 19.2 | 20.1
CN(c1cc(F)c(S(=O)(=O)Nc2cscn2)cc1Cl)[C@H]1CCN(Cc2cccc(C(F)(F)F)n2)C1 [Example 187, (S)-5-chloro-2-fluoro-4-(methyl(1-((6-(trifluoromethyl)-pyridin-2-yl)methyl)pyrrolidin-3-yl)amino)-N-(thiazol-4-yl)benzene-sulfonamide] | 1.01 | 17.3 | 25.4
CN(c1cc(F)c(S(=O)(=O)Nc2cscn2)cc1Cl)[C@H]1CCN(Cc2ccc(Cl)cc2)C1 [Example 188, (S)-5-chloro-4-((1-(4-chlorobenzyl)-pyrrolidin-3-yl)(methyl)amino)-2-fluoro-N-(thiazol-4-yl)benzene-sulfonamide] | 4.15 | 3.25 | 8.24
Cc1cccc(CN2CC[C@H](N(C)c3cc(F)c(S(=O)(=O)Nc4cscn4)cc3Cl)C2)c1F [Example 191, (S)-5-chloro-2-fluoro-4-((1-(2-fluoro-3-methylbenzyl)-pyrrolidin-3-yl)(methyl)amino)-N-(thiazol-4-yl)benzene-sulfonamide] | 0.587 | 8.9 | 8.21
COc1cccc(CN2CC[C@H](N(C)c3cc(F)c(S(=O)(=O)Nc4cscn4)cc3Cl)C2)n1 [Example 194, (S)-5-chloro-2-fluoro-4-((1-((6-methoxypyridin-2-yl)methyl)pyrrolidin-3-yl)(methyl)amino)-N-(thiazol-4-yl)benzene-sulfonamide] | 3.2 | 29.2 | 23.5
CN(c1cc(F)c(S(=O)(=O)Nc2cscn2)cc1Cl)[C@H]1CCN(Cc2cc(Cl)ccc2F)C1 [Example 195, (S)-5-chloro-4-((1-(5-chloro-2-fluorobenzyl)pyrrolidin-3-yl)(methyl)amino)-2-fluoro-N-(thiazol-4-yl)benzenesulfonamide] | 1.49 | 5.1 | 3.78
CN(c1cc(F)c(S(=O)(=O)Nc2cscn2)cc1Cl)[C@H]1CCN(CCCc2ccccc2)C1 [Example 196, (S)-5-chloro-2-fluoro-4-(methyl(1-(3-phenylpropyl)pyrrolidin-3-yl)amino)-N-(thiazol-4-yl)benzenesulfonamide] | 1.26 | 1.87 | 8.2
CN(c1cc(F)c(S(=O)(=O)Nc2cscn2)cc1Cl)[C@H]1CCN(Cc2cc(Cl)ccc2Cl)C1 [Example 197, (S)-5-chloro-4-((1-(2,5-dichlorobenzyl)pyrrolidin-3-yl)(methyl)amino)-2-fluoro-N-(thiazol-4-yl)benzenesulfonamide] | 3.33 | 5.2 | 3.17
CN(c1cc(F)c(S(=O)(=O)Nc2cscn2)cc1Cl)[C@H]1CCN(Cc2ccccc2Cl)C1 [Example 198, (S)-5-chloro-4-((1-(2-chlorobenzyl)pyrrolidin-3-yl)(methyl)amino)-2-fluoro-N-(thiazol-4-yl)benzenesulfonamide] | 1.46 | 5.36 | 4.7
CN(C)c1ccc(CN2CC[C@H](N(C)c3cc(F)c(S(=O)(=O)Nc4cscn4)cc3Cl)C2)cc1 [Example 199, (S)-5-chloro-4-((1-(4-(dimethylamino)benzyl)pyrrolidin-3-yl)(methyl)amino)-2-fluoro-N-(thiazol-4-yl)benzenesulfonamide] | 8.42 | 7.88 | > 30
CN(c1cc(F)c(S(=O)(=O)Nc2cscn2)cc1Cl)[C@H]1CCN(CCOCc2ccccc2)C1 [Example 200, (S)-4-((1-(2-(benzyloxy)ethyl)pyrrolidin-3-yl)(methyl)amino)-5-chloro-2-fluoro-N-(thiazol-4-yl)benzenesulfonamide] | 4.62 | 4.97 | 7.21
Cc1ccc(CN2CC[C@H](N(C)c3cc(F)c(S(=O)(=O)Nc4cscn4)cc3Cl)C2)cc1 [Example 201, (S)-5-chloro-2-fluoro-4-(methyl(1-(4-methylbenzyl)pyrrolidin-3-yl)amino)-N-(thiazol-4-yl)benzenesulfonamide] | 3.32 | 5.74 | 15
CN(c1cc(F)c(S(=O)(=O)Nc2cscn2)cc1Cl)[C@H]1CCN(Cc2ccc[nH]2)C1 [Example 202, (S)-4-((1-((1H-pyrrol-2-yl)methyl)pyrrolidin-3-yl)(methyl)amino)-5-chloro-2-fluoro-N-(thiazol-4-yl)benzenesulfonamide] | 4.32 | 25.1 | > 30
Cc1cccc(C)c1CN1CC[C@H](N(C)c2cc(F)c(S(=O)(=O)Nc3cscn3)cc2Cl)C1 [Example 203, (S)-5-chloro-4-((1-(2,6-dimethylbenzyl)pyrrolidin-3-yl)(methyl)amino)-2-fluoro-N-(thiazol-4-yl)benzenesulfonamide] | 4.15 | 5.74 | 6.7

Source: US10246453B2, “Benzenesulfonamide compounds and their use as therapeutic agents” (Xenon Pharmaceuticals Inc., priority 2016, dated 2019)
